Target: LmbR (C-His6-LmbR) (Streptomyces lincolnensis, UniProt Q54372)
Assay: HPLC with charged aerosol detection, ESI-MS of product
Type: biochemical
Settings: C5 acceptor, 10 mM; co-substrate F6P 10 mM

| SMILES | HPLC with charged aerosol detection, ESI-MS of product |
| --- | --- |
| O=P(O)(O)OC[C@H]1OC(O)[C@H](O)[C@@H]1O (stereo partly drawn) [8a, D-ribose 5-phosphate] | LmbR can accept both R5P (8a) and X5P (8b) as the C5 substrate |
| O=P(O)(O)OC[C@H]1OC(O)[C@H](O)[C@H]1O (stereo partly drawn) [8b, D-xylose 5-phosphate] | LmbR can accept both R5P (8a) and X5P (8b) as the C5 substrate |

— publication PMC3486926 (Journal of the American Chemical Society, 2012)
